Data: the NIST ThermoML archive (doi:10.1016/j.tca.2015.08.013)
Numbers after ± are expanded uncertainties.

Experiments:
[1] = relative permittivity at various frequencies (dimensionless); conditions: 99 kPa, Liquid, Frequency=2 MHz, Parallel plate capacitor
[2] = refractive index (Na D-line) (dimensionless); conditions: 101.33 kPa, Liquid, Standard Abbe refractometry

## Cc1ccco1 [2-methylfuran]
[1]; 278.15 K
  relative permittivity: 2.976 ± 0.015
[1]; 280.65 K
  relative permittivity: 2.967 ± 0.015
[1]; 283.15 K
  relative permittivity: 2.944 ± 0.015
[1]; 285.65 K
  relative permittivity: 2.933 ± 0.015
[1]; 288.15 K
  relative permittivity: 2.911 ± 0.015
[1]; 290.65 K
  relative permittivity: 2.893 ± 0.014
[1]; 293.15 K
  relative permittivity: 2.874 ± 0.014
[1]; 295.65 K
  relative permittivity: 2.854 ± 0.014
[1]; 298.15 K
  relative permittivity: 2.84 ± 0.014
[1]; 300.65 K
  relative permittivity: 2.814 ± 0.014
[1]; 303.15 K
  relative permittivity: 2.8 ± 0.014
[1]; 305.65 K
  relative permittivity: 2.775 ± 0.014
[1]; 308.15 K
  relative permittivity: 2.76 ± 0.014
[1]; 310.65 K
  relative permittivity: 2.735 ± 0.014
[1]; 313.15 K
  relative permittivity: 2.72 ± 0.014
[1]; 315.65 K
  relative permittivity: 2.696 ± 0.013
[1]; 318.15 K
  relative permittivity: 2.678 ± 0.013
[1]; 320.65 K
  relative permittivity: 2.656 ± 0.013
[1]; 323.15 K
  relative permittivity: 2.636 ± 0.013
[1]; 325.65 K
  relative permittivity: 2.617 ± 0.013
[1]; 328.15 K
  relative permittivity: 2.596 ± 0.013
[1]; 330.65 K
  relative permittivity: 2.577 ± 0.013
[1]; 333.15 K
  relative permittivity: 2.556 ± 0.013
[1]; 335.65 K
  relative permittivity: 2.538 ± 0.013
[1]; 338.15 K
  relative permittivity: 2.518 ± 0.013
[2]; 283.15 K
  refractive index: 1.43942 ± 0.00037
[2]; 285.65 K
  refractive index: 1.43794 ± 0.00037
[2]; 288.15 K
  refractive index: 1.43644 ± 0.00037
[2]; 290.65 K
  refractive index: 1.43495 ± 0.00037
[2]; 293.15 K
  refractive index: 1.43344 ± 0.00037
[2]; 295.65 K
  refractive index: 1.43194 ± 0.00037
[2]; 298.15 K
  refractive index: 1.43044 ± 0.00037
[2]; 300.65 K
  refractive index: 1.42893 ± 0.00037
[2]; 303.15 K
  refractive index: 1.42742 ± 0.00037
[2]; 305.65 K
  refractive index: 1.4259 ± 0.00037
[2]; 308.15 K
  refractive index: 1.4244 ± 0.00037
[2]; 310.65 K
  refractive index: 1.42289 ± 0.00037
[2]; 313.15 K
  refractive index: 1.42138 ± 0.00037
[2]; 315.65 K
  refractive index: 1.41984 ± 0.00037
[2]; 318.15 K
  refractive index: 1.41831 ± 0.00037
[2]; 320.65 K
  refractive index: 1.41675 ± 0.00037
[2]; 323.15 K
  refractive index: 1.41521 ± 0.00037
[2]; 325.65 K
  refractive index: 1.41366 ± 0.00037
[2]; 328.15 K
  refractive index: 1.41212 ± 0.00037
[2]; 330.65 K
  refractive index: 1.41059 ± 0.00037
[2]; 333.15 K
  refractive index: 1.40907 ± 0.00037
[2]; 335.65 K
  refractive index: 1.40747 ± 0.00037
[2]; 338.15 K
  refractive index: 1.40589 ± 0.00037
